Test results: publication PMC10244465, “Native American ataxia medicines rescue ataxia-linked mutant potassium channel activity via binding to the voltage sensing domain” (Nature Communications, 2023)

Columns and labels:
wild-type human Kv1.2 = target: T1, wild-type human Kv1.2 (Homo sapiens, UniProt P16389); assay: Two-electrode voltage clamp of oocytes expressing wild-type Kv1.2; format: cell-based
T1 construct: expressed in transfected cells; host or cells: Xenopus laevis oocytes injected with cRNA (pTLNx vector)
T1 sequence (P16389 whole entry): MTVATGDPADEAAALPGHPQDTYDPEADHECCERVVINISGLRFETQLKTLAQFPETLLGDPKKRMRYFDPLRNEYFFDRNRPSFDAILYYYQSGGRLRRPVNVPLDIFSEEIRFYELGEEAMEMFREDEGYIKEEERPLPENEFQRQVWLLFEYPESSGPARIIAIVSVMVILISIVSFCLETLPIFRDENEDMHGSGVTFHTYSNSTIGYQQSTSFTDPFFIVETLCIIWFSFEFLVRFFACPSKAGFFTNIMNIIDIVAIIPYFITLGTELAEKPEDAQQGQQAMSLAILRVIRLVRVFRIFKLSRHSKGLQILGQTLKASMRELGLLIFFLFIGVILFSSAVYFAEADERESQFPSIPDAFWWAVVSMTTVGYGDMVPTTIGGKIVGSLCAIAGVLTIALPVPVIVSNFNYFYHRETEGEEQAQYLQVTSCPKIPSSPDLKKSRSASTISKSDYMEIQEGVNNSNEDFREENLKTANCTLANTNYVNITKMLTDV
Description: We therefore first tested for activity of extracts (diluted 1:50 in bath solution to equal 5 mg plant solid starting material per ml) of each of the three plants on wild-type human Kv1.1 and closely related Kv1.2 expressed in Xenopus laevis oocytes, using manual two-electrode voltage clamp (TEVC). Strikingly, all three extracts altered Kv1 channel activity. […] Pacific ninebark (roots or leaves) had similar effects on Kv1.1 but negligible effects on Kv1.2.
We purchased live Urtica dioica (Common Nettle) from Crimson Sage Nursery (Orleans, CA, USA), cultivated it in Irvine CA, collected the aerial portions (primarily leaves) and then froze them until the day of extraction. We purchased Physocarpus capitatus (Pacific ninebark) live whole plant from Ozark Wildflower Company (Jasper, AR, USA) and separated the roots and aerial parts before extraction of each. We homogenized plant samples using a bead mill with porcelain beads in batches in 50 ml tubes (Omni International, Kennesaw, GA, United States). We purchased certified organic tree bark powders from Mountain Rose Herbs (Eugene, OR, USA) and dry raw Sophora japonica (fine pellets) from Teriya (People’s Republic of China). We purchased bladderwrack kelp extract capsules from Terra Vita (Brampton, Ontario, Canada) and discarded the outer capsule before extraction. We resuspended all plant powders and homogenates in 80% methanol/20% water (100 ml per 5 g solid) and then incubated for 48 h at room temperature, occasionally inverting the bottles to resuspend the extracts. We next filtered the extracts through Whatman filter paper #1 (Whatman, Maidstone, UK), and then removed the methanol using evaporation in a fume hood for 24–48 h at room temperature. We next centrifuged extracts for 10 min at 15 °C, 4000 RCF to remove the remaining particulate matter, followed by storage at −20 °C. On the day of electrophysiological recording, we thawed the extracts and diluted them 1:50 in bath solution (see below), to equal 5 mg plant solid starting material per ml, immediately before use.
Wild-type and mutant Kv1 cDNAs were generated (Genscript, Piscataway, NJ) in the pTLNx expression vector. […]
(§1) We performed TEVC at room temperature using an OC-725C amplifier (Warner Instruments, Hamden, CT) and pClamp10 software (Molecular Devices, Sunnyvale, CA) 2 days after cRNA injection as described in the section above. […] We recorded currents in response to voltage pulses between −80 mV and +40 mV at 10 or 20 mV intervals from a holding potential of −80 mV, to yield current-voltage relationships and examine activation kinetics. To calculate the voltage dependence of activation (V0.5), tail currents were recorded at a voltage pulse of −50 mV immediately following prepulse voltages between −80 mV and +40 mV. […]

[1] = target: T2, Kv1.1/Kv1.1-L328V channels (Homo sapiens, UniProt Q09470, L328V); assay: TEVC of oocytes co-injected with 50/50 wild-type/L328V Kv1.1 cRNA; format: cell-based; conditions: for effect on channel activity: compound 1 µM
T2 construct: expressed in transfected cells; host or cells: Xenopus laevis oocytes co-injected with 50/50 wild-type/mutant cRNA
T2 sequence (Q09470 whole entry, stated change not applied): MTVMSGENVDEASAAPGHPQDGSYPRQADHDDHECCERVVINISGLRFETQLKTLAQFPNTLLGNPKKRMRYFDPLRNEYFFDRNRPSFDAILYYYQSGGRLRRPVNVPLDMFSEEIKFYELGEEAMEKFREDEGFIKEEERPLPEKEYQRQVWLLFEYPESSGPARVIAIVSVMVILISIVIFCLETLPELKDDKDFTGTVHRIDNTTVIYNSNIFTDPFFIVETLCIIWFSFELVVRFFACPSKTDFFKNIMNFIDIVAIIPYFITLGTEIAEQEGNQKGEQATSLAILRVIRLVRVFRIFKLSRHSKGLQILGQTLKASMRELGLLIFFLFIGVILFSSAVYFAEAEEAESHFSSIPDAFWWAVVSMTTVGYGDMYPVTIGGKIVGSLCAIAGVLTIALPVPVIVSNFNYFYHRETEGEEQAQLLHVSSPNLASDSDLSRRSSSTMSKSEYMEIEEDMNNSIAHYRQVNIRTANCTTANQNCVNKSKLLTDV
T2 sequence (Q09470 whole entry L328V): as the sequence (Q09470 whole entry, stated change not applied) above, with L328V counted along it
Description: We next tested effects on channels generated by co-injection of 50/50 wild-type/mutant Kv1.1 cRNA. Strikingly, gallic acid (1 µM) was able to hyperpolarize (by −15.5 ± 0.5 mV; n = 4; P < 0.0001) the V0.5 act of Kv1.1/Kv1.1-E283K channels, restoring voltage dependence typical of wild-type Kv1.1 (Fig. 7a–c), also inducing a −14 ± 0.7 mV hyperpolarization (n = 4; P = 0.0005) in EM of oocytes expressing Kv1.1/Kv1.1-E283K (Fig. 7d). […] Because of this hint at activity improvement in L155P channels we also applied higher concentrations (10 and 100 µM) of gallic acid, which produced a more robust (−12.5 ± 0.6 mV and −14.1 ± 0.6 mV, respectively) hyperpolarization of Kv1.1/Kv1.1-L155P V0.5 act (Fig. 8b, c) and hyperpolarized EM by −14.0 ± 0.6 mV and −15.2 ± 0.7 mV, respectively (Fig. 8d).
Wild-type and mutant Kv1 cDNAs were generated (Genscript, Piscataway, NJ) in the pTLNx expression vector. As previously described, we generated cRNA transcripts encoding human Kv1.1 (wild-type and mutant) and Kv1.2, by in vitro transcription using the mMessage mMachine kit (Thermo Fisher Scientific), after vector linearization, from cDNA sub-cloned into plasmids (pTLNx) incorporating Xenopus laevis β-globin 5’ and 3’ UTRs flanking the coding region to enhance translation and cRNA stability. […]
as §1, with “mV. We analyzed data using Clampfit (Molecular Devices) and Graphpad Prism software (GraphPad, San Diego, CA, USA), stating values as mean ± SEM.” for “mV.”

Row | EC50 (wild-type human Kv1.2; dose response, Fig. 4, read-out: EC50 for ΔV0.5activation) | Compound | effect on channel activity [1] | effect on Kv1.2 (wild-type human Kv1.2; compound dose response, Fig. 4a) | EM ([1]; in presence of 1 µM compound)
1 | 253 ± 10 nM | tannic acid | minimal |  | 
2 |  | O=C(O)c1cc(O)c(O)c(O)c1 [gallic acid] | negligible | relatively insensitive | -33.00 ± 1.09 mV
